Converted amounts (≈) assume the structure as drawn.
Experiments:
Assay type in all cases: cell-based
Aspergillus brasiliensis = experiment: Minimum Inhibition Concentration (MIC) screen; settings: strain ATTC 16404
Protocol: (§1) To test the compounds as antimicrobial agents, the compounds were screened for activity to inhibit bacteria, yeast and mold. The Minimum Inhibition Concentration (MIC) is determined as the lowest concentration activity to inhibit the microorganism.

Candida albicans = experiment: Minimum Inhibition Concentration (MIC) screen; settings: strain ATTC 10231
Protocol: as §1

Staphylococcus aureus [1] = experiment: Minimum Inhibition Concentration (MIC) screen; settings: strain ATTC 6538
Protocol: as §1

[2] = tested on: Staphylococcus epidermidis; experiment: Minimum Inhibition Concentration (MIC) screen; settings: strain ATTC 12228
Protocol: as §1

Escherichia coli [3] = experiment: Minimum Inhibition Concentration (MIC) screen; settings: strain ATTC 10536
Protocol: as §1

Pseudomonas aeruginosa = experiment: Minimum Inhibition Concentration (MIC) screen; settings: strain ATTC 15442
Protocol: as §1

Staphylococcus aureus [4] = experiment: Bactericidal activity in solution (Activity % Reduction); settings: 2000 ppm in water at ambient temperature
Protocol: (§2) In a second assay, compounds of this invention were screened for activity to kill bacteria in solution over a short period of time. Bactericidal activity is expressed as Activity % Reduction. All samples were tested in water at ambient temperature and at a concentration of 2000 ppm.

Escherichia coli [5] = experiment: as above; settings: 2000 ppm in water at ambient temperature
Protocol: as §2

SMILES | MIC (Aspergillus brasiliensis) | MIC (Candida albicans) | MIC (Staphylococcus aureus [1]) | MIC [2] | MIC (Escherichia coli [3]) | MIC (Pseudomonas aeruginosa) | inhibition at 2000 ppm (Staphylococcus aureus [4]; 5 min) | inhibition at 2000 ppm (Staphylococcus aureus [4]; 1 hour) | inhibition at 2000 ppm (Escherichia coli [5]; 5 min) | inhibition at 2000 ppm (Escherichia coli [5]; 1 hour)
CCCCC1CC(C)=CC(O)C1 (stereo not shown) [3-Methyl-5-Butyl-2-Cyclohexenol, 3-methyl-5-butyl-2-cyclohexenol] | 250 µg/mL (≈ 1.49 mM) | 125 µg/mL (≈ 0.743 mM) | 125 µg/mL (≈ 0.743 mM) | 125 µg/mL (≈ 0.743 mM) | > 1000 µg/mL | > 1000 µg/mL | 28.4% | 39% | 34.7% | 88.5%
CCCCC1CC(=O)C=C(C)C1 (stereo not shown) [3-Methyl-5-Butyl-2-Cyclohexenone, 3-methyl-5-butyl-2-cyclohexenone] | 250 µg/mL (≈ 1.5 mM) | 500 µg/mL (≈ 3.01 mM) | 500 µg/mL (≈ 3.01 mM) | 1000 µg/mL (≈ 6.01 mM) | 500 µg/mL (≈ 3.01 mM) | > 1000 µg/mL | 33.9% | 33.2% | 83.8% | 100%
CCCCCCCC1CC(=O)C=C(C)C1 (stereo not shown) [3-Methyl-5-Heptyl-2-Cyclohexenone, 3-methyl-5-heptyl-2-cyclohexenone] | > 1000 µg/mL | > 1000 µg/mL | 15.6 µg/mL (≈ 0.0749 mM) | 31.2 µg/mL (≈ 0.15 mM) | > 1000 µg/mL | > 1000 µg/mL | 37.6% | 24.1% | 13.9% | 25%
CCCC1CC(=O)C=C(C)C1 (stereo not shown) [3-Methyl-5-Propyl-2-Cyclohexenone, 3-methyl-5-propyl-2-cyclohexenone] | 500 µg/mL (≈ 3.28 mM) | 1000 µg/mL (≈ 6.57 mM) | 1000 µg/mL (≈ 6.57 mM) | > 1000 µg/mL | 1000 µg/mL (≈ 6.57 mM) | > 1000 µg/mL | 29.2% | 33.9% | 69.5% | 99%

From patent publication US20150125402A1, “ANTIMICROBIAL AGENTS” (BEDOUKIAN RESEARCH, INC., priority 2012, published 2015)
